“And” between values parts separate entries of the source, which are not always exact repeats. Equal values may be shown once.
Settings: transient hot wire

O=C(C(F)(F)C(F)(F)F)C(F)(C(F)(F)F)C(F)(F)F [dodecafluoro-2-methylpentan-3-one]
Settings | thermal conductivity
417.43 K, 35735 kPa, Liquid | 0.06006 W/m/K
417.44 K, 35746 kPa, Liquid | 0.06008 W/m/K
417.45 K, 995 kPa, Gas | 0.022 W/m/K
417.46 K, 24856 kPa, Liquid | 0.05553 W/m/K
417.46 K, 24868 kPa, Liquid | 0.05553 W/m/K
417.48 K, 3782 kPa, Liquid | 0.04235 W/m/K
417.49 K, 3785 kPa, Liquid | 0.04236 W/m/K
417.5 K, 788 kPa, Gas | 0.02105 W/m/K and 0.02104 W/m/K
417.52 K, 10593 kPa, Liquid | 0.04792 W/m/K
417.52 K, 10594 kPa, Liquid | 0.04785 W/m/K
417.53 K, 2204 kPa, Liquid | 0.04067 W/m/K
417.53 K, 2206 kPa, Liquid | 0.04059 W/m/K
417.56 K, 372 kPa, Gas | 0.02094 W/m/K
417.59 K, 16285 kPa, Liquid | 0.05128 W/m/K
417.59 K, 35671 kPa, Liquid | 0.06014 W/m/K
417.59 K, 35701 kPa, Liquid | 0.06019 W/m/K
417.6 K, 591 kPa, Gas | 0.02077 W/m/K
417.6 K, 1024 kPa, Gas | 0.0225 W/m/K
417.6 K, 16284 kPa, Liquid | 0.05126 W/m/K
417.61 K, 594 kPa, Gas | 0.02078 W/m/K
417.61 K, 6424 kPa, Liquid | 0.04484 W/m/K
417.62 K, 6421 kPa, Liquid | 0.0448 W/m/K
417.65 K, 994 kPa, Gas | 0.02218 W/m/K
417.66 K, 995 kPa, Gas | 0.02218 W/m/K
417.68 K, 785 kPa, Gas | 0.02107 W/m/K
417.7 K, 788 kPa, Gas | 0.02117 W/m/K
417.7 K, 3782 kPa, Liquid | 0.04218 W/m/K and 0.04238 W/m/K
417.71 K, 10585 kPa, Liquid | 0.04785 W/m/K
417.73 K, 10592 kPa, Liquid | 0.04786 W/m/K
417.76 K, 371 kPa, Gas | 0.02099 W/m/K
417.76 K, 372 kPa, Gas | 0.0209 W/m/K
417.82 K, 589 kPa, Gas | 0.02086 W/m/K
417.82 K, 6421 kPa, Liquid | 0.0448 W/m/K
417.84 K, 994 kPa, Gas | 0.02265 W/m/K
417.84 K, 6421 kPa, Liquid | 0.04481 W/m/K
417.85 K, 994 kPa, Gas | 0.02241 W/m/K
417.88 K, 785 kPa, Gas | 0.02124 W/m/K
417.93 K, 3782 kPa, Liquid | 0.04241 W/m/K
417.93 K, 3784 kPa, Liquid | 0.04244 W/m/K
417.95 K, 369 kPa, Gas | 0.02101 W/m/K
417.95 K, 370 kPa, Gas | 0.02093 W/m/K
418.05 K, 588 kPa, Gas | 0.02096 W/m/K
418.08 K, 784 kPa, Gas | 0.02089 W/m/K
418.16 K, 367 kPa, Gas | 0.02097 W/m/K
418.16 K, 369 kPa, Gas | 0.02096 W/m/K
418.29 K, 587 kPa, Gas | 0.02094 W/m/K
418.3 K, 587 kPa, Gas | 0.02092 W/m/K
418.46 K, 367 kPa, Gas | 0.02103 W/m/K
418.47 K, 366 kPa, Gas | 0.02102 W/m/K
432.13 K, 1545 kPa, Gas | 0.02726 W/m/K
432.18 K, 1546 kPa, Gas | 0.02748 W/m/K
432.2 K, 1545 kPa, Gas | 0.02732 W/m/K
432.24 K, 1546 kPa, Gas | 0.02788 W/m/K
432.25 K, 1546 kPa, Gas | 0.02765 W/m/K
432.26 K, 1546 kPa, Gas | 0.0279 W/m/K
432.38 K, 2634 kPa, Liquid | 0.03887 W/m/K
432.38 K, 2635 kPa, Liquid | 0.0388 W/m/K
432.42 K, 1424 kPa, Gas | 0.02465 W/m/K
432.43 K, 1423 kPa, Gas | 0.02466 W/m/K
432.46 K, 1706 kPa, Liquid | 0.03696 W/m/K
432.46 K, 1978 kPa, Liquid | 0.03766 W/m/K
432.47 K, 1706 kPa, Liquid | 0.03707 W/m/K
432.47 K, 1710 kPa, Liquid | 0.03705 W/m/K
432.47 K, 1979 kPa, Liquid | 0.03775 W/m/K
432.52 K, 1423 kPa, Gas | 0.0248 W/m/K
432.52 K, 2633 kPa, Liquid | 0.03885 W/m/K
432.53 K, 1423 kPa, Gas | 0.02469 W/m/K
432.53 K, 2633 kPa, Liquid | 0.03887 W/m/K
432.54 K, 1420 kPa, Gas | 0.02444 W/m/K
432.55 K, 1420 kPa, Gas | 0.0244 W/m/K
432.56 K, 1978 kPa, Liquid | 0.03769 W/m/K
432.57 K, 1705 kPa, Liquid | 0.03737 W/m/K and 0.03712 W/m/K
432.57 K, 1979 kPa, Liquid | 0.0379 W/m/K
432.62 K, 1709 kPa, Liquid | 0.03738 W/m/K
432.63 K, 1422 kPa, Gas | 0.02518 W/m/K
432.63 K, 1709 kPa, Liquid | 0.0377 W/m/K
432.65 K, 1419 kPa, Gas | 0.02476 W/m/K and 0.02477 W/m/K
432.67 K, 1705 kPa, Liquid | 0.03805 W/m/K
432.68 K, 1705 kPa, Liquid | 0.0373 W/m/K
432.68 K, 1977 kPa, Liquid | 0.03782 W/m/K
432.68 K, 1978 kPa, Liquid | 0.03794 W/m/K
432.68 K, 2631 kPa, Liquid | 0.03893 W/m/K
432.68 K, 2632 kPa, Liquid | 0.03891 W/m/K
432.69 K, 3940 kPa, Liquid | 0.04069 W/m/K and 0.04067 W/m/K

From the NIST ThermoML archive (doi:10.1021/acs.jced.8b00132)
